These results are taken from patent publication US20210253598A1, “ARYL ANNULATED MACROCYCLIC INDOLE DERIVATIVES” (priority 2017, published 2021).

Experiment [1] addresses MCL-1 (Homo sapiens, UniProt Q07820, K194A/K197A/R201A). Nature of the experiment: Protein-protein interaction assay MCL-1/Noxa BH3 peptide, TR-FRET (MCL-1 assay, Assay 1). The experiment is classed as binding. As to conditions: MCL-1 Assay [M] (median), MBP-MCL-1 / Noxa BH3 peptide. Summed up: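 TR-FRET competition between compounds and a biotin-PEG Noxa BH3 tracer for 1 nM MBP-MCL-1 (residues 173-321). Incubation was 1 h at 22 °C in the dark, then overnight at 4 °C, in 50 mM Tris pH 7 buffer with KF and DTT, after a 10-min compound pre-equilibration. Normalized ratios were fitted with a 4-parameter Hill equation to give IC50.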
In general terms: TR-FRET usually uses a lanthanide donor and a delayed reading to cut background.

Experiment [2] concerns the target BCL-XL (Homo sapiens, UniProt Q07817). Nature of the experiment: Protein-protein interaction assay BCL-XL/Bad BH3 peptide, TR-FRET (BCL-XL assay, Assay 2). The experiment is classed as binding. As to conditions: His-BCL-XL / Bad BH3 peptide, median.
Experiment [3] concerns the target BCL-2 (Homo sapiens, UniProt P10415). In words: Protein-protein interaction assay BCL-2/Bad BH3 peptide, TR-FRET (BCL-2 assay, Assay 3). Particulars: His-BCL-2 / Bad BH3 peptide, median. The experiment is classed as binding.
In experiment [4] the test system is SUDHL5. In words: Induction of caspase-3/7 activity in SUDHL5 cells (Assay 4). The experiment is classed as cell-based. As to conditions: Homo sapiens, SU-DHL-5, 3 h, SUDHL5, 3 hours treatment, Caspase-Glo 3/7; median; read-out: Caspase SUDHL5 [M] (median). The essentials:
(§1)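 Luminescent Caspase-Glo 3/7 read-out in SUDHL5 and SUDHL10 cells after 3 h compound exposure at 37 °C, followed by 1 h reagent incubation.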

The subject of experiment [5] is SUDHL10. In words: Induction of caspase-3/7 activity in SUDHL10 cells (Assay 4). The experiment is classed as cell-based. As to conditions: Homo sapiens, SU-DHL10, 3 h, SUDHL10, 3 hours treatment, Caspase-Glo 3/7; median; read-out: Caspase SUDHL10 [M] (median). The essentials: as §1
The subject of experiment [6] is SUDHL5. In words: Induction of cytotoxicity in SUDHL5 cells, CellTiter-Glo (Assay 6). The experiment is classed as cell-based. As to conditions: Homo sapiens, SU-DHL-5, 5 h, SUDHL5, 5 hours incubation, median, read-out: Cytotox SUDHL5 [M] (median). Summed up: (§2)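 Run alongside apoptosis assays, this cytotoxicity measure used a 5-hour compound incubation at 37° C in humidified conditions, following overnight attachment. Cell viability was quantified by CellTiter-Glo luminescence.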

The subject of experiment [7] is SUDHL10. In words: Induction of cytotoxicity in SUDHL10 cells, CellTiter-Glo (Assay 6). The experiment is classed as cell-based. As to conditions: Homo sapiens, SU-DHL10, 5 h, SUDHL10, 5 hours incubation, median, read-out: Cytotox SUDHL10 [M] (median). Summed up: as §2
Experiment [8] concerns SUDHL5. In words: Anti-proliferative effect in SUDHL5 cells, CellTiter-Glo (Assay 7). The experiment is classed as cell-based. As to conditions: Homo sapiens, SU-DHL-5, 72 h, SUDHL5, 72 hours incubation, CellTiter-Glo; median; read-out: Antiproli SUDHL5 [M] (median). Summed up:
(§3)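 Cells were plated and incubated overnight at 37 °C alongside a day 0 reference plate, then exposed to compound for 72 h. Viability was read by CellTiter-Glo luminescence, and IC50s were calculated using day 0 values and DMSO controls as references.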

For experiment [9], the system named is MV-4-11. In words: Anti-proliferative effect in MV-4-11 cells, CellTiter-Glo (Assay 7). Particulars: MV-4-11, 72 hours incubation, CellTiter-Glo, several values per example, read-out: Antiproli MV-4-11. The experiment is classed as cell-based. The essentials: as §3
Experiment [10] relates to A2780. Nature of the experiment: Anti-proliferative effect in A2780 cells, CellTiter-Glo (Assay 7). The experiment is classed as cell-based. Particulars: A2780, 72 hours incubation, CellTiter-Glo, several values per example, read-out: Antiproli A2780. The essentials: as §3
The test system of experiment [11] is AMO-1. In words: Anti-proliferative effect in AMO-1 cells, CellTiter-Glo (Assay 7). The experiment is classed as cell-based. Particulars: AMO-1, 72 hours incubation, CellTiter-Glo, several values per example, read-out: Antiproli AMO-1. Summed up: as §3
In general terms: In ATP-based viability assays light output follows the ATP content of the culture.

Structures are written as SMILES. Read-outs that look alike come from different tables or passages of the source.

Sequence of BCL-2 (P10415 1-211): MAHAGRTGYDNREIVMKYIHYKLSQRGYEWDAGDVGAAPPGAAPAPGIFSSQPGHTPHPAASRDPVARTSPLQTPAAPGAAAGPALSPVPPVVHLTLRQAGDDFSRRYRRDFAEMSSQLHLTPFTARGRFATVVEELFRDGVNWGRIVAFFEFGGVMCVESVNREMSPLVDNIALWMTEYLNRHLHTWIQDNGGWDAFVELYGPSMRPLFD
Sequence of BCL-XL (Q07817 1-212): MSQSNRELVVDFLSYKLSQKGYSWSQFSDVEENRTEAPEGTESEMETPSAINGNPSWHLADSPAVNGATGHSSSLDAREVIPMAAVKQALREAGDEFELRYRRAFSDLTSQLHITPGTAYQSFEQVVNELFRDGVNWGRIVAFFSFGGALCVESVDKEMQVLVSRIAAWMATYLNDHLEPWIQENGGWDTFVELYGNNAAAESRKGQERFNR
Sequence of MCL-1 (Q07820 173-321 K194A/K197A/R201A, looked up): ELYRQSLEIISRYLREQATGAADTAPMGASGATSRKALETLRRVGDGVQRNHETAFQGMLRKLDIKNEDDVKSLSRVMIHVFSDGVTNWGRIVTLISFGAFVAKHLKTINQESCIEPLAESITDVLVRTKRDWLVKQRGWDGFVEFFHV

`Cc1cc(OCCCc2c(C(=O)O)n3c4c(c(F)ccc24)-c2c(nn(C)c2C)COCc2ccccc2C3)cc(C)c1Cl` [Example 60, (rac)-1-(3-(4-Chloro-3,5-dimethylphenoxy)propyl)-15-fluoro-13,14-dimethyl-4,9,11,13-tetrahydrobenzo[3,4]pyrazolo[4′,3′:9,10][1,6]oxaazacycloundecino[8,7,6-hi]indole-2-carboxylic Acid]: the IC50 was 2.9e-09 M in experiment [1]; above 20 µM in experiment [2]; 19.8 µM in experiment [3]; 3.7e-06 M in experiment [6]; 7.6e-06 M in [7]; 5.1e-06 M in experiment [8]. Besides, the IC50 in experiment [9] (Homo sapiens, MV4-11, 72 h) turned out to be 5.75 µM; in experiment [10] (Homo sapiens, A2780, 72 h), 23 µM. Besides, the results for the EC50 in experiment [4] and in experiment [5] were 3e-06 M and 1.2e-05 M, respectively.

As to `Cc1nn(C)c2c1-c1c(F)ccc3c(CCCOc4cccc5c4CCC5)c(C(=O)O)n(c13)Cc1ccccc1COC2` (racemic) [Example 84, (rac)-1-(3-((2,3-Dihydro-1H-inden-4-yl)oxy)propyl)-15-fluoro-12,14-dimethyl-4,9,11,12-tetrahydrobenzo[3,4]pyrazolo[4′,3′:9,10][1]oxa[6]azacycloundecino[8,7,6-hi]indole-2-carboxylic Acid], the IC50 in [1] was 6.2e-09 M; in experiment [2] it was above 20 µM; in [3], above 20 µM; in experiment [6], 1.1e-05 M; in [7] it was 2.2e-05 M; in experiment [8], 7.7e-06 M. Further, the IC50 was 12.5 µM in experiment [9] (Homo sapiens, MV4-11, 72 h) and 31 µM in experiment [10] (Homo sapiens, A2780, 72 h). The figures for the EC50 in experiment [4] and in experiment [5] were 9.8e-06 M and 2.7e-05 M, respectively.

Consider `CCc1nn(C)c2c1-c1c(F)ccc3c(CCCOc4cccc5c4CCCC5)c(C(=O)O)n(c13)Cc1ccccc1COC2` (racemic) [Example 88, (rac)-14-Ethyl-15-fluoro-12-methyl-1-(3-((5,6,7,8-tetrahydronaphthalen-1-yl)oxy)propyl)-4,9,11,12-tetrahydrobenzo[3,4]pyrazolo[4′,3′:9,10][1,6]oxaazacycloundecino[8,7,6-hi]indole-2-carboxylic Acid], for which the IC50 in experiment [1] was 7.4e-09 M; in experiment [2], above 20 µM; in [3], 13.7 µM; in [6], 7.4e-06 M; in experiment [7], 1.5e-05 M; in [8], 6e-06 M. Also, the IC50 in experiment [9] (Homo sapiens, MV4-11, 72 h) amounted to 9.93 µM; in experiment [10] (Homo sapiens, A2780, 72 h), 15.1 µM. Also, the EC50 in experiment [4] turned out to be 6.2e-06 M; in [5], 1.7e-05 M.

Turning to `CCc1nn(C)c2c1-c1c(F)ccc3c(CCCOc4cccc5ccccc45)c(C(=O)O)n(c13)Cc1ccccc1COC2` (racemic) [Example 91, (rac)-14-Ethyl-15-fluoro-12-methyl-1-(3-(naphthalen-1-yloxy)propyl)-4,9,11,12-tetrahydrobenzo[3,4]pyrazolo[4′,3′:9,10][1,6]oxaazacycloundecino[8,7,6-hi]indole-2-carboxylic Acid], the IC50 in experiment [1] was 8.6e-09 M; in [2], above 20 µM; in [3] it was at least 20.5 µM; in experiment [6] it was 3.2e-06 M; in [7] it was 7.5e-06 M; in [8], 3.6e-06 M. Also, the IC50 turned out to be 12.4 µM in experiment [9] (Homo sapiens, MV4-11, 72 h); 11.7 µM in experiment [9]; 15.3 µM in [11]; 18.7 µM in experiment [11] (Homo sapiens, AMO1, 72 h). In addition, the EC50 in [4] came to 2.8e-06 M; in experiment [5], 1.2e-05 M.

For the compound `CCc1c2c(nn1C)COCc1ccccc1Cn1c(C(=O)O)c(CCCOc3ccc(F)c4ccccc34)c3ccc(F)c-2c31` (racemic) [Example 76, (rac)-14-Ethyl-15-fluoro-1-(3-((4-fluoronaphthalen-1-yl)oxy)propyl)-13-methyl-4,9,11,13-tetrahydrobenzo[3,4]pyrazolo[4′,3′:9,10][1]oxa[6]azacycloundecino[8,7,6-hi]indole-2-carboxylic Acid], the IC50 in [1] is 3.1e-09 M; in experiment [2], above 20 µM; in experiment [3], 15.8 µM; in experiment [6], 3.4e-06 M; in experiment [7], 9.4e-06 M; in experiment [8], 3.7e-06 M. Also, the IC50 in experiment [9] (Homo sapiens, MV4-11, 72 h) was 9.05 µM; in [9], 10.1 µM; in experiment [10], 25 µM; in experiment [10] (Homo sapiens, A2780, 72 h) it was 16.6 µM. For the same compound, the EC50 in experiment [4] came out at 3.3e-06 M; in experiment [5] it was 1.3e-05 M.

On to `Cc1c2c(nn1C)COCc1ccccc1Cn1c(C(=O)O)c(CCCOc3cccc4c3CCC4)c3ccc(F)c-2c31` (racemic) [Example 61, (rac)-1-(3-((2,3-Dihydro-1H-inden-4-yl)oxy)propyl)-15-fluoro-13,14-dimethyl-4,9,11,13-tetrahydrobenzo[3,4]pyrazolo[4′,3′:9,10][1,6]oxaazacycloundecino[8,7,6-hi]indole-2-carboxylic Acid], for which the IC50 in experiment [1] was 2.1e-09 M; in [2] it was above 20 µM; in experiment [3] it was above 20 µM; in [6] it was 2.3e-06 M; in experiment [7], 5e-06 M; in [8], 2.1e-06 M. For the same compound, the IC50 came to 3.57 µM in experiment [9] (Homo sapiens, MV4-11, 72 h) and 22.8 µM in experiment [10] (Homo sapiens, A2780, 72 h). Moreover, the results for the EC50 in experiment [4] and in experiment [5] were 2.5e-06 M and 5.8e-06 M, respectively.

As to `Cc1c2c(nn1C)COCc1ccccc1Cn1c(C(=O)O)c(CCCOc3ccc(F)c4ccccc34)c3ccc(F)c-2c31` (racemic) [Example 63, (rac)-15-Fluoro-1-(3-((4-fluoronaphthalen-1-yl)oxy)propyl)-13,14-dim4,9,11,13-tetrahydrobenzo[3,4]pyrazolo[4′,3′:9,10][1,6]oxaazacycloundecino[8,7,6-hi]indole-2-carboxylic Acid], the IC50 in [1] is 4.5e-09 M; in [2], above 20 µM; in experiment [3] it was 18.1 µM; in [6] it was 8.3e-06 M; in experiment [7], 1.5e-05 M; in experiment [8], 6.2e-06 M. The IC50 was above 33 µM in experiment [9] (Homo sapiens, MV4-11, 72 h) and 19.7 µM in experiment [10] (Homo sapiens, A2780, 72 h). Further, the EC50 in experiment [4] amounted to 9.3e-06 M; in experiment [5], 2.3e-05 M.

In the case of `CCc1nn(C)c2c1-c1c(F)ccc3c(CCCOc4cccc5c4CCC5)c(C(=O)O)n(c13)Cc1ccccc1COC2` (racemic) [Example 87, (rac)-1-(3-((2,3-Dihydro-1H-inden-4-yl)oxy)propyl)-14-ethyl-15-fluoro-12-methyl-4,9,11,12-tetrahydrobenzo[3,4]pyrazolo[4′,3′:9,10][1,6]oxaazacycloundecino[8,7,6-hi]indole-2-carboxylic Acid], the IC50 in experiment [1] is 4.5e-09 M; in [2], above 20 µM; in experiment [3] it was 13.7 µM; in experiment [6], 3.2e-06 M; in experiment [7] it was 6e-06 M; in experiment [8] it was 2.1e-06 M. The IC50 in [9] (Homo sapiens, MV4-11, 72 h) came out at 12.4 µM; in [9], 6.98 µM; in [11], 6.64 µM; in [11] (Homo sapiens, AMO1, 72 h), 12.9 µM. The EC50 stood at 2.3e-06 M in experiment [4] and 9.4e-06 M in experiment [5].

With `Cc1c2c(nn1C)COCc1ccccc1Cn1c(C(=O)O)c(CCCOc3cccc4c3CCCC4)c3ccc(F)c-2c31` (racemic) [Example 62, (rac)-15-Fluoro-13,14-dimethyl-1-(3-((5,6,7,8-tetrahydronaphthalen-1-yl)oxy)propyl)-4,9,11,13-tetrahydrobenzo[3,4]pyrazolo[4′,3′:9,10][1,6]oxaazacycloundecino[8,7,6-hi]indole-2-carboxylic Acid], the IC50 in experiment [1] is 2.6e-09 M; in experiment [2] it was above 20 µM; in experiment [3], above 20 µM; in experiment [6], 2.9e-06 M; in [7], 5.2e-06 M; in experiment [8], 3.1e-06 M. For the same compound, the IC50 came out at 6.36 µM in [9] (Homo sapiens, MV4-11, 72 h) and 13.9 µM in experiment [10] (Homo sapiens, A2780, 72 h). Further, the figures for the EC50 in experiment [4] and in [5] were 3.2e-06 M and 1e-05 M, respectively.
